ChEMBL document CHEMBL3352542, “Synthesis, biological evaluation and molecular modeling study of 2-(1,3,4-thiadiazolyl-thio and 4-methyl-thiazolyl-thio)-quinazolin-4-ones as a new class of DHFR inhibitors” (Bioorg Med Chem Lett, 2014)
pIC50: −log10 of the molar value. Activity calls are given as the source filed them. No cut-off for these calls is given here.

Columns and labels:
[1] = Growth inhibition of human UO31 cells at 10 uM after 48 hrs; type: functional; settings: UO-31, 48 h, read-out: GI
[2] = Growth inhibition of human OVCAR3 cells at 10 uM after 48 hrs; type: functional; settings: OVCAR-3, 48 h, read-out: GI
[3] = Growth inhibition of human RPMI8226 cells at 10 uM after 48 hrs; type: functional; settings: RPMI-8226, 48 h, read-out: GI
T47D = assay: Growth inhibition of human T47D cells at 10 uM after 48 hrs; type: functional; settings: read-out: GI
[4] = Growth inhibition of human LOXIMVI cells at 10 uM after 48 hrs; type: functional; settings: LOX IMVI, read-out: GI
SNB-75 = assay: Growth inhibition of human SNB75 cells at 10 uM after 48 hrs; type: functional; settings: SNB-75, 48 h, read-out: GI
A549 = assay: Growth inhibition of human A549 cells at 10 uM after 48 hrs; type: functional; settings: A549, 48 h, read-out: GI
[5] = Growth inhibition of human RXF393 cells at 10 uM after 48 hrs; type: functional; settings: RXF 393, 48 h, read-out: GI
CCRF-CEM = assay: Growth inhibition of human CCRF-CEM cells at 10 uM after 48 hrs; type: functional; settings: read-out: GI
Pseudomonas aeruginosa = assay: Antimicrobial activity against Pseudomonas aeruginosa assessed as inhibition zone at 200 ug/disk after 24 hrs by disc-diffusion method; type: functional; settings: read-out: IZ
SF-268 = assay: Growth inhibition of human SF268 cells at 10 uM after 48 hrs; type: functional; settings: SF-268, 48 h, read-out: GI
[6] = Growth inhibition of human OVCAR4 cells at 10 uM after 48 hrs; type: functional; settings: OVCAR-4, 48 h, read-out: GI
A498 = assay: Growth inhibition of human A498 cells at 10 uM after 48 hrs; type: functional; settings: A498, 48 h, read-out: GI
NCI-H23 = assay: Growth inhibition of human NCI-H23 cells at 10 uM after 48 hrs; type: functional; settings: NCI-H23, 48 h, read-out: GI
[7] = Growth inhibition of human PC3 cells at 10 uM after 48 hrs; type: functional; settings: PC-3, 48 h, read-out: GI
SR = assay: Growth inhibition of human SR cells at 10 uM after 48 hrs; type: functional; settings: read-out: GI
U-251 = assay: Growth inhibition of human U251 cells at 10 uM after 48 hrs; type: functional; settings: U-251, 48 h, read-out: GI
Candida albicans = assay: Antimicrobial activity against Candida albicans assessed as inhibition zone at 200 ug/disk after 24 hrs by disc-diffusion method; type: functional; settings: read-out: IZ
[8] = Growth inhibition of human HOP92 cells at 10 uM after 48 hrs; type: functional; settings: HOP-92, 48 h, read-out: GI
KM12 = assay: Growth inhibition of human KM12 cells at 10 uM after 48 hrs; type: functional; settings: KM12, 48 h, read-out: GI
Staphylococcus aureus [9] = assay: Antimicrobial activity against Staphylococcus aureus assessed as inhibition zone at 200 ug/disk after 24 hrs by disc-diffusion method; type: functional; settings: read-out: IZ
[10] = Growth inhibition of human SF295 cells at 10 uM after 48 hrs; type: functional; settings: SF-295, 48 h, read-out: GI
K562 = assay: Growth inhibition of human K562 cells at 10 uM after 48 hrs; type: functional; settings: K562, 48 h, read-out: GI
[11] = Growth inhibition of human OVCAR8 cells at 10 uM after 48 hrs; type: functional; settings: OVCAR-8, 48 h, read-out: GI
NCI-H226 = assay: Growth inhibition of human NCI-H226 cells at 10 uM after 48 hrs; type: functional; settings: NCI-H226, 48 h, read-out: GI
[12] = Growth inhibition of human HCT116 cells at 10 uM after 48 hrs; type: functional; settings: HCT-116, 48 h, read-out: GI
SK-MEL-5 = assay: Growth inhibition of human SK-MEL-5 cells at 10 uM after 48 hrs; type: functional; settings: SK-MEL-5, 48 h, read-out: GI
[13] = Growth inhibition of human UACC257 cells at 10 uM after 48 hrs; type: functional; settings: UACC-257, 48 h, read-out: GI
[14] = Growth inhibition of human HCT15 cells at 10 uM after 48 hrs; type: functional; settings: HCT-15, 48 h, read-out: GI
Escherichia coli = assay: Antimicrobial activity against Escherichia coli assessed as inhibition zone at 200 ug/disk after 24 hrs by disc-diffusion method; type: functional; settings: read-out: IZ
[15] = Growth inhibition of human UACC62 cells at 10 uM after 48 hrs; type: functional; settings: UACC-62, 48 h, read-out: GI
M14 = assay: Growth inhibition of human M14 cells at 10 uM after 48 hrs; type: functional; settings: M14, 48 h, read-out: GI
ACHN = assay: Growth inhibition of human ACHN cells at 10 uM after 48 hrs; type: functional; settings: read-out: GI
CAKI-1 = assay: Growth inhibition of human CAKI-1 cells at 10 uM after 48 hrs; type: functional; settings: CAKI-1, 48 h, read-out: GI
[16] = Growth inhibition of human Hs 578T cells at 10 uM after 48 hrs; type: functional; settings: read-out: GI
MDA-MB-468 = assay: Growth inhibition of human MDA-MB-468 cells at 10 uM after 48 hrs; type: functional; settings: MDA-MB-468, 48 h, read-out: GI
Bacillus subtilis [17] = assay: Antimicrobial activity against Bacillus subtilis assessed as inhibition of visible growth after 24 hrs by disc-diffusion method; type: functional, organism-based
[18] = Growth inhibition of human SF539 cells at 10 uM after 48 hrs; type: functional; settings: SF-539, 48 h, read-out: GI
Dihydrofolate reductase = target: T1, Dihydrofolate reductase (Bos taurus, UniProt P00376); assay: Inhibition of bovine liver DHFR
T1 sequence (P00376 whole entry): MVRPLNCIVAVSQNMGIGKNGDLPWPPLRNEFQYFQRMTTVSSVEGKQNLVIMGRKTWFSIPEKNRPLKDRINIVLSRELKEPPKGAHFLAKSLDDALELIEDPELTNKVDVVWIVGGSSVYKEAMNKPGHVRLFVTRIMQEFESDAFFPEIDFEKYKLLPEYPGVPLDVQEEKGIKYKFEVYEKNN

MCF7 = assay: Growth inhibition of human MCF7 cells at 10 uM after 48 hrs; type: functional; settings: MCF7, 48 h, read-out: GI
Bacillus subtilis [19] = assay: Antimicrobial activity against Bacillus subtilis assessed as inhibition zone at 200 ug/disk after 24 hrs by disc-diffusion method; type: functional; settings: read-out: IZ
[20] = Growth inhibition of human NCI-ADR-RES cells at 10 uM after 48 hrs; type: functional; settings: read-out: GI
MDA-MB-231 = assay: Growth inhibition of human MDA-MB-231 cells at 10 uM after 48 hrs; type: functional; settings: MDA-MB-231, 48 h, read-out: GI
[21] = Growth inhibition of human MOLT4 cells at 10 uM after 48 hrs; type: functional; settings: MOLT-4, 48 h, read-out: GI
Staphylococcus aureus [22] = assay: Antimicrobial activity against Staphylococcus aureus assessed as inhibition of visible growth after 24 hrs by disc-diffusion method; type: functional, organism-based

Cc1ccc2nc(Sc3sc(N)nc3C)n(Cc3ccccc3)c(=O)c2c1
inhibition of growth at 10 µM [1]: 35.5%
inhibition of growth at 10 µM [2]: 19.2%
inhibition of growth at 10 µM [3]: 28.1%
inhibition of growth at 10 µM (T47D): 23.9%
inhibition of growth at 10 µM [4]: 19.5%
inhibition of growth at 10 µM (SNB-75): 22.7%
inhibition of growth at 10 µM (A549): 22.1%
inhibition of growth at 10 µM [5]: 17.8%
inhibition of growth at 10 µM (CCRF-CEM): 14.9%
zone of inhibition at 200 µg/disc (Pseudomonas aeruginosa): 8 mm
inhibition of growth at 10 µM (SF-268): 10.8%
inhibition of growth at 10 µM [6]: 18.7%
inhibition of growth at 10 µM (A498): 21.9%
inhibition of growth at 10 µM (NCI-H23): 19.2%
inhibition of growth at 10 µM [7]: 34.5%
inhibition of growth at 10 µM (SR): 19%
inhibition of growth at 10 µM (U-251): 12.2%
zone of inhibition at 200 µg/disc (Candida albicans): 12 mm
inhibition of growth at 10 µM [8]: 50.2%
inhibition of growth at 10 µM (KM12): 18.8%
zone of inhibition at 200 µg/disc (Staphylococcus aureus [9]): 18 mm
inhibition of growth at 10 µM [10]: 21.9%
inhibition of growth at 10 µM (K562): 17.4%
inhibition of growth at 10 µM [11]: 16%
inhibition of growth at 10 µM (NCI-H226): 22.7%
inhibition of growth at 10 µM [12]: 20.7%
inhibition of growth at 10 µM (SK-MEL-5): 25.8%
inhibition of growth at 10 µM [13]: 11.6%
inhibition of growth at 10 µM [14]: 13.5%
zone of inhibition at 200 µg/disc (Escherichia coli): 8 mm
inhibition of growth at 10 µM [15]: 22.8%
inhibition of growth at 10 µM (M14): 10.3%
inhibition of growth at 10 µM (ACHN): 19.8%
inhibition of growth at 10 µM (CAKI-1): 13.7%
inhibition of growth at 10 µM [16]: 19.4%
inhibition of growth at 10 µM (MDA-MB-468): 30.1%
Activity (Bacillus subtilis [17]): Active
inhibition of growth at 10 µM [18]: 15.1%
pIC50 (Dihydrofolate reductase): 5.30
inhibition of growth at 10 µM (MCF7): 10.7%
zone of inhibition at 200 µg/disc (Bacillus subtilis [19]): 21 mm
inhibition of growth at 10 µM [20]: 20.3%
inhibition of growth at 10 µM (MDA-MB-231): 14.2%
inhibition of growth at 10 µM [21]: 34.2%
Activity (Staphylococcus aureus [22]): Active
